In paper PMC6278656, “Synthesis and Biological Evaluation of Phaeosphaeride A Derivatives as Antitumor Agents” (Molecules, 2018):

Legend:
Format in all cases: cell-based
[1] = tested on: human embryonic fibroblasts HEF; assay: MTT cytotoxicity assay, HEF (control cells); conditions: Fibroblast, 72 h, n = 3, ± SD, read-out: Adhesive Cell Cultures, IC50 HEF
Protocol: (§1) All newly synthesized PPA derivatives 1–8 were evaluated for their anti-proliferative activity against human breast cancer MCF-7, human prostate adenocarcinoma PC-3, human colorectal cancer HCT-116, human lung cancer A549, human chronic myelogenous leukemia K562, human acute monocytic leukemia THP-1, human multiple myeloma RPMI8226, human acute T-cell leukemia Jurkat, human multiple myeloma NCI-H929, and human embryonic fibroblasts HEF cell lines by MTT assays. All cells were incubated with different concentrations of PPA derivatives for 72 h, with etoposide and PPA used as reference compounds. The anticancer activity of the tested compounds was described as the concentration of drug inhibiting 50% cell growth IC50 (Table 1 and Table 2).
(§2) ^1H-NMR spectra were acquired on an AVANCE III 400 MHz NMR spectrometer (Bruker, Rheinstetten, Germany) in CDCl3. Optical rotations were acquired on a Polaar 3005 Polarimeter (Optical Activity, Huntingdon, Great Britain) using a 2.5 cm cell with a Na 589 nm filter and the concentration of samples was denoted as c. Mass spectra data were acquired on a TSQ Quantum Access Max Mass spectrometer (Thermo Fisher Scientific, Waltham, MA, USA). High-resolution mass spectra (HRMS) were acquired on a LTQ Orbitrap Velos spectrometer (Thermo Scientific) and on a Bruker MicrOTOF. FTIR spectra were acquired on an IR Affinity-1 spectrometer (Shimadzu, Thermo Scientific). Organic solvents used were dried by standard methods when necessary. Commercially available reagents were used without further purification. All reactions were monitored by TLC with silica gel coated plates (EMD/Merck KGaA, Darmstadt, Germany), with visualization by UV light and by charring with 0.1% ninhydrin in EtOH. Column chromatography was performed using Merck 60 Å 70–230 mesh silica gel. The optical density was determined using a Multiskan FC spectrophotometer (Thermo Scientific) at a wavelength of 540 nm when using the MTT assay.
(§3) MCF-7 (breast cancer), PC-3 (prostate adenocarcinoma), HCT-116 (colorectal cancer cell), A549 (lung cancer), K562 (chronic myelogenous leukemia), THP-1 (acute monocytic leukemia), and RPMI8226 (multiple myeloma), Jurkat (acute T-cell leukemia), HEF (human embryonic fibroblasts) was purchased from the Russian Academy of Sciences Cells Bank (Institute of Cytology of the Russian Academy of Sciences, Saint Petersburg, Russian Federation). Multiple myeloma cell line NCI-H929 was purchased from ATCC (USA). The MCF-7, A549 and HEF (human embryonic fibroblasts) were cultured in DMEM medium. Other cell lines were cultured in RPMI1640 medium, (PanEco, Russia) supplemented with 10% fetal bovine serum (GE Healthcare LifeSciences, São Paulo, Brazil), and gentamicin at a concentration of 40 μg/mL and cultured at 37 °C in a humidified atmosphere containing 5% CO2. All experiments were performed with cells at passages 3 to 7 in the logarithmic phase of growth.
(§4) Cells were seeded into 96-well plates of 5 × 10^3 for adhesive cultures and 20 × 10^3 for suspension cultures per well in 90 μL and 135 μL of culture medium, respectively. The test substances were dissolved in DMSO to a concentration of 1 × 10^−2 M. For subsequent dilution of the substances, a serum-free culture medium was used as the diluent. Final concentration of DMSO in wells was no more than 1%. […] Substances were added to the cells in 3–4 replicates after 24 h for adhesive cultures and immediately for suspension cultures. 10–15 μL of serum-free medium was added to the control wells with non-exposed cells. Cells were cultured for 72 h at 37 °C in an atmosphere of 5% CO2.

[2] = tested on: human breast cancer MCF-7 cells; assay: MTT cytotoxicity assay, MCF-7; conditions: MCF7, 72 h, n = 3, ± SD, read-out: Adhesive Cell Cultures, IC50 MCF-7
Protocol: as §1, §2, §3, §4

[3] = tested on: human multiple myeloma RPMI8226 cells; assay: MTT cytotoxicity assay, RPMI8226; conditions: Homo sapiens, RPMI-8226; MTT, 72 h, n = 3, ± SD; read-out: Suspension Cell Cultures, IC50 RPMI8228
Protocol: as §1, §2, §3, §4

[4] = tested on: human colorectal cancer HCT-116 cells; assay: MTT cytotoxicity assay, HCT-116; conditions: Homo sapiens, MTT, 72 h, n = 3, ± SD, read-out: Adhesive Cell Cultures, IC50 HCT-116
Protocol: as §1, §2, §3, §4

[5] = tested on: human acute T-cell leukemia Jurkat cells; assay: MTT cytotoxicity assay, Jurkat; conditions: Homo sapiens, MTT, 72 h, n = 3, ± SD, read-out: Suspension Cell Cultures, IC50 Jurkat
Protocol: as §1, §2, §3, §4

[6] = tested on: human prostate adenocarcinoma PC-3 cells; assay: MTT cytotoxicity assay, PC-3; conditions: Homo sapiens, MTT, 72 h, n = 3, ± SD, read-out: Adhesive Cell Cultures, IC50 PC-3
Protocol: as §1, §2, §3, §4

[7] = tested on: human chronic myelogenous leukemia K562 cells; assay: MTT cytotoxicity assay, K562; conditions: Homo sapiens, MTT, 72 h, n = 3, ± SD, read-out: Suspension Cell Cultures, IC50 К562
Protocol: as §1, §2, §3, §4

[8] = tested on: human lung cancer A549 cells; assay: MTT cytotoxicity assay, A549; conditions: 72 h, n = 3, ± SD, read-out: Adhesive Cell Cultures, IC50 A549
Protocol: as §1, §2, §3, §4

[9] = tested on: human acute monocytic leukemia THP-1 cells; assay: MTT cytotoxicity assay, THP-1; conditions: 72 h, n = 3, ± SD, read-out: Suspension Cell Cultures, IC50 THP-1
Protocol: as §1, §2, §3, §4

[10] = tested on: human multiple myeloma NCI-H929 cells; assay: MTT cytotoxicity assay, NCI-H929; conditions: Homo sapiens, MTT, 72 h, n = 3, ± SD, read-out: Suspension Cell Cultures, IC50 NCI-Н929
Protocol: as §1, §2, §3, §4

SMILES | IC50 [1] [µM] | IC50 [2] [µM] | IC50 [3] [µM] | IC50 [4] [µM] | IC50 [5] [µM] | IC50 [6] [µM] | IC50 [7] [µM] | IC50 [8] [µM] | IC50 [9] [µM] | IC50 [10] [µM]
C=C1C2=C(C(=O)N1OC)[C@@H](NCCO)[C@@](C)(O)[C@H](CCCCC)O2 [Compound 2, (2S,3R,4R)-3-Hydroxy-4-[(2-hydroxyethyl)amino]-6-methoxy-3-methyl-7-methylene-2-pentyl-3,4,6,7-tetra-hydropyrano[2,3-c]pyrrol-5(2H)-one] | 16.2 ± 0.26 | 3.23 ± 1.07 | 3.5 ± 0.82 | 4.63 ± 0.04 | 2.6 ± 0.99 | 5.55 ± 1.48 | 5.5 ± 0.57 | 15.1 ± 0.45 | 2.3 ± 0.57 | 2.05 ± 0.35
C=CCN[C@@H]1C2=C(O[C@@H](CCCCC)[C@]1(C)O)C(=C)N(OC)C2=O [Compound 4, (2S,3R,4R)-4-(Allylamino)-3-hydroxy-6-methoxy-3-methyl-7-methylene-2-pentyl-3,4,6,7-tetrahydropyrano-[2,3-c]pyrrol-5(2H)-one] | 5.03 ± 0.15 | 4.13 ± 0.23 | 6 ± 0.13 | 8.4 ± 0.24 | 3.27 ± 0.07 | 6.37 ± 0.18 | 10.5 ± 0.41 | 12.7 ± 0.27 | 3.32 ± 0.1 | 2.35 ± 0.09
C=C1C2=C(C(=O)N1OC)[C@@H](N1CCC(N3CCCC3)CC1)[C@@](C)(O)[C@H](CCCCC)O2 [Compound 7, (2S,3R,4R)-3-Hydroxy-6-methoxy-3-methyl-7-methylene-2-pentyl-4-(4-pyrrolidin-1-ylpiperidin-1-yl)-3,4,6,7-tetrahydropyrano[2,3-c]pyrrol-5(2H)-one] | 22.3 ± 0.33 | 1.8 ± 0.44 | 3.35 ± 1.48 | 1.65 ± 0.63 | 2.73 ± 1.53 | 3.65 ± 0.64 | 6.03 ± 0.91 | 12.2 ± 0.2 | 3.45 ± 0.21 | 2 ± 0.26
C=C1C2=C(C(=O)N1OC)[C@H](O)[C@@](C)(O)[C@H](CCCCC)O2 [PPA, phaeosphaeride A] | 19.1 ± 0.25 | 20.3 ± 0.8 | 9.15 ± 0.64 | 24.2 ± 0.75 | 9.7 ± 0.42 | 32.1 ± 0.77 | 20.5 ± 1.46 | 41.1 ± 2.6 | 19.1 ± 0.45 | 6.5 ± 0.3
C=C1C2=C(C(=O)N1OC)[C@@H](NCc1ccccc1)[C@@](C)(O)[C@H](CCCCC)O2 [Compound 5, (2S,3R,4R)-4-(benzylamino)-3-hydroxy-6-methoxy-3-methyl-7-methylene-2-pentyl-3,4,6,7-tetrahydro-pyrano[2,3-c]pyrrol-5(2H)-one] | 53.1 ± 1.06 | 35.7 ± 0.65 | 16 ± 0.16 | 12.9 ± 0.3 | 10.1 ± 0.44 | 24.7 ± 1.24 | 14.1 ± 0.48 | 37.5 ± 1.33 | 15.1 ± 0.36 | 
C=C1C2=C(C(=O)N1OC)[C@@H](N1CCC(O)CC1)[C@@](C)(O)[C@H](CCCCC)O2 [Compound 8, (2S,3R,4R)-3-Hydroxy-4-(4-hydroxypiperidin-1-yl)-6-methoxy-3-methyl-7-methylene-2-pentyl-3,4,6,7-tetra-hydropyrano[2,3-c]pyrrol-5(2H)-one] | 6.7 ± 0.23 | 3.2 ± 0.52 | 1.4 ± 0.28 | 2.64 ± 0.05 | 2.6 ± 1.13 | 4.53 ± 0.4 | 4.9 ± 2.4 | 9.4 ± 0.14 | 2.1 ± 0.28 | 1.87 ± 0.25
C=C1C2=C(C(=O)N1OC)[C@@H](NC)[C@@](C)(O)[C@H](CCCCC)O2 [Compound 1, (2S,3R,4R)-3-Hydroxy-6-methoxy-3-methyl-4-(methylamino)-7-methylene-2-pentyl-3,4,6,7-tetrahydro-pyrano[2,3-c]pyrrol-5(2H)-one] | 22.3 ± 0.44 | 4.1 ± 0.44 | 3.97 ± 0.68 | 3.68 ± 0.81 | 2.75 ± 0.21 | 3.35 ± 0.92 | 3.25 ± 0.64 | 12.7 ± 0.4 | 2.25 ± 0.21 | 1.35 ± 0.69
C=C1C2=C(C(=O)N1OC)[C@@H](NCCCCO)[C@@](C)(O)[C@H](CCCCC)O2 [Compound 3, (2S,3R,4R)-3-Hydroxy-4-[(4-hydroxybutyl)amino]-6-methoxy-3-methyl-7-methylene-2-pentyl-3,4,6,7-tetra-hydropyrano[2,3-c]pyrrol-5(2H)-one] | 15.2 ± 1.02 | 3.05 ± 1.2 | 2.7 ± 0.28 | 2.9 ± 0.98 | 3.15 ± 1.77 | 4.5 ± 1.56 | 6.7 ± 0.28 |  | 2.6 ± 0.57 | 1.95 ± 0.21
